In brackets after ≈: the same amount, converted by molar mass.
Columns and labels:
Staphylococcus aureus [1] = experiment: Antibacterial activity against Staphylococcus aureus MTCC 96 assessed as inhibition of bacterial growth by microtiter broth dilution method; format: functional
Pseudomonas aeruginosa [2] = experiment: Antibacterial activity against Pseudomonas aeruginosa MTCC 2453 assessed as inhibition of bacterial growth by microtiter broth dilution method; format: functional
THP-1 [3] = experiment: Cytotoxicity against human THP-1 cells assessed as cell damage at 200 uM by LDH assay; format: cell-based; conditions: thp-1, 200 µM
Bacillus subtilis [4] = experiment: Antibacterial activity against Bacillus subtilis MTCC 121 assessed as inhibition of bacterial growth by microtiter broth dilution method; format: functional
Micrococcus luteus [5] = experiment: Antibacterial activity against Micrococcus luteus MTCC 2470 assessed as inhibition of bacterial growth by microtiter broth dilution method; format: functional
Bacillus subtilis [6] = experiment: Bactericidal activity against Bacillus subtilis MTCC 121; format: functional
THP-1 [7] = experiment: Cytotoxicity against human THP-1 cells assessed as reduction in cell viability at 200 uM by MTT assay; format: cell-based; conditions: thp-1, 200 µM
[8] = Cytotoxicity against human THP-1 cells; format: cell-based
Staphylococcus aureus [9] = experiment: Antibacterial activity against Staphylococcus aureus MLS16 MTCC 2940 assessed as inhibition of bacterial growth by microtiter broth dilution method; format: functional
Staphylococcus aureus [10] = experiment: Bactericidal activity against Staphylococcus aureus MTCC 96; format: functional
[11] = Selectivity index, ratio of CC50 for human THP-1 cells to MIC for Staphylococcus aureus MTCC 96; format: toxicity
Raoultella planticola [12] = experiment: Antibacterial activity against Klebsiella planticola MTCC 530 assessed as inhibition of bacterial growth by microtiter broth dilution method; format: functional
Escherichia coli [13] = experiment: Antibacterial activity against Escherichia coli MTCC 739 assessed as inhibition of bacterial growth by microtiter broth dilution method; format: functional
Pseudomonas aeruginosa [14] = experiment: Inhibition of biofilm formation in Pseudomonas aeruginosa MTCC 2453 incubated for 24 hrs by crystal violet staining based microtiter plate method; format: functional, organism-based
Staphylococcus aureus [15] = experiment: Inhibition of biofilm formation in Staphylococcus aureus MLS16 MTCC 2940 incubated for 24 hrs by crystal violet staining based microtiter plate method; format: functional, organism-based
Micrococcus luteus [16] = experiment: Inhibition of biofilm formation in Micrococcus luteus MTCC 2470 incubated for 24 hrs by crystal violet staining based microtiter plate method; format: functional, organism-based
Escherichia coli [17] = experiment: Inhibition of biofilm formation in Escherichia coli MTCC 739 incubated for 24 hrs by crystal violet staining based microtiter plate method; format: functional, organism-based
Bacillus subtilis [18] = experiment: Inhibition of biofilm formation in Bacillus subtilis MTCC 121 incubated for 24 hrs by crystal violet staining based microtiter plate method; format: functional, organism-based
Raoultella planticola [19] = experiment: Inhibition of biofilm formation in Klebsiella planticola MTCC 530 incubated for 24 hrs by crystal violet staining based microtiter plate method; format: functional, organism-based
Raoultella planticola [20] = experiment: Bactericidal activity against Klebsiella planticola MTCC 530; format: functional
Candida albicans [21] = experiment: Inhibition of biofilm formation in Candida albicans MTCC 3017 incubated for 24 hrs by crystal violet staining based microtiter plate method; format: functional, organism-based
Staphylococcus aureus [22] = experiment: Inhibition of biofilm formation in Staphylococcus aureus […] incubated for 24 hrs by crystal violet staining based microtiter plate method; format: functional, organism-based
Candida albicans [23] = experiment: Antifungal activity against Candida albicans MTCC 227; format: functional
Candida albicans [24] = experiment: Antifungal activity against Candida albicans MTCC 183; format: functional
Candida albicans [25] = experiment: Antifungal activity against Candida albicans MTCC 1637; format: functional
Candida albicans [26] = experiment: Antifungal activity against Candida albicans MTCC 854; format: functional
Pichia kudriavzevii = experiment: Antifungal activity against Candida krusei MTCC 3020; format: functional
Candida albicans [27] = experiment: Antifungal activity against Candida albicans MTCC 4748; format: functional
[Candida] aaseri = Antifungal activity against Candida aaseri MTCC 1962; format: functional; conditions: Yamadazyma aaseri
Pichia sporocuriosa = experiment: Antifungal activity against Issatchenkia hanoiensis MTCC 4755; format: functional
Nakaseomyces glabratus = experiment: Antifungal activity against Candida glabrata MTCC 3019; format: functional
Candida albicans [28] = experiment: Fungicidal activity against Candida albicans MTCC 183; format: functional
Candida parapsilosis = experiment: Antifungal activity against Candida parapsilosis MTCC 1745; format: functional; conditions: Lodderomyces parapsilosis
Candida albicans [29] = experiment: Antifungal activity against Candida albicans MTCC 3958; format: functional
Candida albicans [30] = experiment: Antifungal activity against Candida albicans MTCC 3018; format: functional
Micrococcus luteus [31] = experiment: Bactericidal activity against Micrococcus luteus MTCC 2470; format: functional
Pseudomonas aeruginosa [32] = experiment: Bactericidal activity against Pseudomonas aeruginosa MTCC 2453; format: functional
Escherichia coli [33] = experiment: Bactericidal activity against Escherichia coli MTCC 739; format: functional
[34] = Bacillus subtilis, MTCC 121, 24 h, read-out: IC50

Compound | MIC (Staphylococcus aureus [1]) [µM] | MIC (Pseudomonas aeruginosa [2]) [µM] | Activity (THP-1 [3]) | MIC (Bacillus subtilis [4]) [µM] | MIC (Micrococcus luteus [5]) [µM] | MBC (Bacillus subtilis [6]) [µM] | Activity (THP-1 [7]) | CC50 [8] [µM] | MIC (Staphylococcus aureus [9]) [µM] | MBC (Staphylococcus aureus [10]) [µM] | selectivity ratio [11] | MIC (Raoultella planticola [12]) [µM] | MIC (Escherichia coli [13]) [µM] | IC50 (Pseudomonas aeruginosa [14]) | IC50 (Staphylococcus aureus [15]) | IC50 (Micrococcus luteus [16]) | IC50 (Escherichia coli [17]) | IC50 (Candida albicans [21]) | IC50 (Raoultella planticola [19]) | IC50 (Staphylococcus aureus [22]) | further results
COc1ccc(-c2csc(N/N=C/c3ccc(OCc4cn(-c5ccc(OC)cc5)nn4)cc3)n2)cc1 | 7.6 (≈ 3.9 µg/mL) | > 244 | Toxic | 7.6 (≈ 3.9 µg/mL) | > 244 | 30.4 (≈ 15.6 µg/mL) | Toxic | 39 | > 244 | 30.4 (≈ 15.6 µg/mL) | 5.13 | > 244 | > 244 | – | – | – | – | – | – | – | –
COc1ccc(-n2cc(COc3ccc(/C=N/Nc4nc(-c5cc6cccc(Br)c6oc5=O)cs4)cc3)nn2)cc1 | 6.1 (≈ 3.84 µg/mL) | > 199 | – | 6.1 (≈ 3.84 µg/mL) | > 199 | 12.3 (≈ 7.74 µg/mL) | – | – | > 199 | 12.3 (≈ 7.74 µg/mL) | – | 6.1 (≈ 3.84 µg/mL) | > 199 | Not Active | Not Active | Not Active | Not Active | Not Active | – | – | IC50 (Bacillus subtilis [18]; [34]): 35.4 µM; IC50 (Raoultella planticola [19]; Klebsiella planticola, MTCC 530, 24 h, read-out: IC50): 42.3 µM; MBC (Raoultella planticola [20]): 12.3 µM (≈ 7.74 µg/mL); IC50 (Staphylococcus aureus [22]; Staphylococcus aureus, MTCC 92, 24 h, read-out: IC50): 32.6 µM
COc1ccc(-n2cc(COc3ccc(/C=N/Nc4nc(-c5cc6cc(Cl)cc(Cl)c6oc5=O)cs4)cc3)nn2)cc1 | > 202 | > 202 | – | > 202 | > 202 | – | – | – | > 202 | – | – | > 202 | > 202 | Not Active | Not Active | Not Active | Not Active | Not Active | Not Active | Not Active | IC50 (Bacillus subtilis [18]): Not Active
COc1ccc(-n2cc(COc3ccc(/C=N/Nc4nc(-c5ccc(F)cc5)cs4)cc3)nn2)cc1 | > 223 | > 223 | – | > 223 | > 223 | – | – | – | > 223 | – | – | > 223 | > 223 | – | – | – | – | – | – | – | –
CCOc1cc(Br)cc2cc(-c3csc(N/N=C/c4ccc(OCc5cn(-c6ccc(OC)cc6)nn5)cc4)n3)c(=O)oc12 | > 186 | > 186 | – | > 186 | > 186 | – | – | – | > 186 | – | – | > 186 | > 186 | Not Active | Not Active | Not Active | Not Active | Not Active | Not Active | Not Active | IC50 (Bacillus subtilis [18]): Not Active
COc1ccc(-n2cc(COc3ccc(/C=N/Nc4nc(-c5cc6cc([N+](=O)[O-])cc([N+](=O)[O-])c6oc5=O)cs4)cc3)nn2)cc1 | > 195 | > 195 | – | > 195 | > 195 | – | – | – | > 195 | – | – | > 195 | > 195 | Not Active | Not Active | Not Active | Not Active | Not Active | Not Active | Not Active | MIC (Candida albicans [23]): > 195 µM; MFC (Candida albicans [24]): 12.2 µM (≈ 7.82 µg/mL); MIC (Candida albicans [24]): 6.1 µM (≈ 3.91 µg/mL); MIC (Candida albicans [25]): > 195 µM; IC50 (Bacillus subtilis [18]): Not Active; MIC (Candida albicans [26]): > 195 µM; MIC (Pichia kudriavzevii): > 195 µM; MIC (Candida albicans [27]): > 195 µM; MIC ([Candida] aaseri): > 195 µM; MIC (Pichia sporocuriosa): > 195 µM; MIC (Nakaseomyces glabratus): > 195 µM; MFC (Candida albicans [28]): 12.2 µM (≈ 7.82 µg/mL); MIC (Candida parapsilosis): > 195 µM; MIC (Candida albicans [29]): > 195 µM; MIC (Candida albicans [30]): > 195 µM
CCOc1cccc2cc(-c3csc(N/N=C/c4ccc(OCc5cn(-c6ccc(OC)cc6)nn5)cc4)n3)c(=O)oc12 | > 210 | > 210 | – | > 210 | > 210 | – | – | – | > 210 | – | – | > 210 | > 210 | Not Active | Not Active | Not Active | Not Active | Not Active | Not Active | Not Active | IC50 (Bacillus subtilis [18]): Not Active
COc1ccc(-n2cc(COc3ccc(/C=N/Nc4nc(-c5ccc(Cl)cc5)cs4)cc3)nn2)cc1 | 15 (≈ 7.76 µg/mL) | > 242 | Toxic | > 242 | > 242 | – | Toxic | 38.7 | > 242 | 30.2 (≈ 15.6 µg/mL) | 2.58 | > 242 | > 242 | – | – | – | – | – | – | – | –
COc1ccc(-n2cc(COc3ccc(/C=N/Nc4nc(-c5ccc(C)cc5)cs4)cc3)nn2)cc1 | 15.7 (≈ 7.8 µg/mL) | > 252 | Toxic | > 252 | > 252 | – | Toxic | 40.3 | > 252 | 31.4 (≈ 15.6 µg/mL) | 2.57 | > 252 | > 252 | – | – | – | – | – | – | – | –
COc1ccc(-n2cc(COc3ccc(/C=N/Nc4nc(-c5ccccc5)cs4)cc3)nn2)cc1 | > 259 | > 259 | – | > 259 | > 259 | – | – | – | > 259 | – | – | > 259 | > 259 | – | – | – | – | – | – | – | –
COc1ccc(-n2cc(COc3ccc(/C=N/Nc4nc(-c5ccc(-c6ccccc6)cc5)cs4)cc3)nn2)cc1 | 13.9 (≈ 7.77 µg/mL) | > 224 | Toxic | 13.9 (≈ 7.77 µg/mL) | > 224 | 27.9 (≈ 15.6 µg/mL) | Toxic | 35.8 | > 224 | 27.9 (≈ 15.6 µg/mL) | 2.58 | > 224 | > 224 | – | – | – | – | – | – | – | –
COc1ccc(-n2cc(COc3ccc(/C=N/Nc4nc(-c5ccc(Br)cc5)cs4)cc3)nn2)cc1 | > 223 | 27.7 (≈ 15.6 µg/mL) | Toxic | 13.8 (≈ 7.75 µg/mL) | 13.8 (≈ 7.75 µg/mL) | 55.5 (≈ 31.2 µg/mL) | Toxic | 35.6 | > 223 | – | 0.16 | > 223 | > 223 | – | – | – | – | – | – | – | MBC (Micrococcus luteus [31]): 27.7 µM (≈ 15.6 µg/mL); MBC (Pseudomonas aeruginosa [32]): 111 µM (≈ 62.4 µg/mL)
COc1ccc(-n2cc(COc3ccc(/C=N/Nc4nc(-c5cc6cc(Br)cc(Br)c6oc5=O)cs4)cc3)nn2)cc1 | > 176 | > 176 | – | 5.5 (≈ 3.9 µg/mL) | 5.5 (≈ 3.9 µg/mL) | 11 (≈ 7.79 µg/mL) | – | – | > 176 | – | – | > 176 | 5.5 (≈ 3.9 µg/mL) | – | Not Active | – | Not Active | Not Active | Not Active | Not Active | IC50 (Pseudomonas aeruginosa [14]; Pseudomonas aeruginosa, MTCC 2453, 24 h, read-out: IC50): 110 µM; MBC (Micrococcus luteus [31]): 11 µM (≈ 7.79 µg/mL); IC50 (Micrococcus luteus [16]; Micrococcus luteus, MTCC 2470, 24 h, read-out: IC50): 45.1 µM; MBC (Escherichia coli [33]): 11 µM (≈ 7.79 µg/mL); IC50 (Bacillus subtilis [18]; [34]): 42.6 µM
COc1ccc(-n2cc(COc3ccc(/C=N/Nc4nc(-c5ccc([N+](=O)[O-])cc5)cs4)cc3)nn2)cc1 | 14.7 (≈ 7.76 µg/mL) | 14.7 (≈ 7.76 µg/mL) | Toxic | 14.7 (≈ 7.76 µg/mL) | 14.7 (≈ 7.76 µg/mL) | 29.5 (≈ 15.6 µg/mL) | Toxic | 37.9 | > 237 | 29.5 (≈ 15.6 µg/mL) | 2.58 | > 237 | > 237 | – | – | – | – | – | – | – | MBC (Micrococcus luteus [31]): 29.5 µM (≈ 15.6 µg/mL); MBC (Pseudomonas aeruginosa [32]): 59.1 µM (≈ 31.2 µg/mL)
